Earlier results, collected in patent publication US20050032867A1, “Pharmaceutical composition comprising a 5ht1 receptor agonist” (priority 2001, published 2005).

CNS(=O)(=O)Cc1ccc2[nH]cc(CCN(C)C)c2c1 [sumatriptan]
effect of food on the overall bioavailability (administered orally): no significant effect
delay of Tmax (time to maximum observed serum concentrations) by food (administered orally with food): about 0.5 hour
